Data taken from patent US20080317876A1, “USE OF A MAGNESIUM ISOTOPE FOR TREATING HYPOXIA AND A MEDICAMENT COMPRISING THE SAME” (priority 2007, published 2008).
In brackets after ≈: the same amount, converted by molar mass.

Key:
[1] = unmodified C60-fullerene; cited from earlier work
Cationite capacity = assay type: physicochemical
[2] = system: heart muscle mitochondria membranes; experiment: Retention of the drug by heart muscle mitochondria membranes after a single i.v. injection; assay type: in vivo
[3] = system: heart muscle tissue (rat myocardium) under hypoxia; assay type: in vivo
Description: Same tests were also performed in inhalation hypoxia model specified below (FIG. 14-16).
The following in vivo experimental hypoxia models were employed:
(1) Medicinal hypoxia syndrome A (1-methylnicotineamide (MNA), 10-20 mg/kg i.v. once per 24 hrs); […] (2) Medicinal hypoxia syndrome B (DXR 60-80 mg/kg i.v. once per 24 hrs); (3) The oxygen depleted inhalation model (10-20 day long exposition of rats to the artificial gas mixture to breath with, 12-16% oxygen/84-88% nitrogen, v/v).
Male adult Wistar Albino Glaxo rats (180-220 gms) were used, 3-4 animals per each experimental point.

| Compound | solubility [1] | cationite capacities (Cationite capacity) | time the drug molecule is retained by heart muscle mitochondria membranes [2] | protecting the heart muscle tissue from the damaging impact promoted by hypoxia ([3]; hypoxia of any sort, even at extra low doses) | safety of long term multiple administration of extra low doses ([3]; in vivo) | effect in medicinal hypoxic cardiotoxicity cases (DXR, MNA) ([3]; long term multiple administration, extra low doses) |
| --- | --- | --- | --- | --- | --- | --- |
| c12c3c4c5c1c1c6c7c2c2c8c3c3c9c4c4c%10c5c5c1c1c6c6c%11c7c2c2c7c8c3c3c8c9c4c4c9c%10c5c5c1c1c6c6c%11c2c2c7c3c3c8c4c4c9c5c1c1c6c2c3c41 [C60-fullerene] | 1.3e-05 ng/mL (≈ 1.8e-05 nM) | – | – | – | – | – |
| fullerene (C60)-2-(butadiene-1-yl)tetra(o-γ-aminobutyryl-o-phtalyl)ferroporphyrin [PMC16] | – | 320-370 meqv/mmol | not less than a week | efficient | totally safe | marked prophylactic and therapeutic effect |
